# Reference: patent publication US20240158370A1, “CK1 alpha AND DUAL CK1 alpha / GSPT1 DEGRADING COMPOUNDS” (Innovo Therapeutics, Inc., priority 2022, published 2024)
# Key:
# GSPT1 = GSPT1 (Homo sapiens, UniProt P15170+Q96SW2); experiment: HiBiT degradation assay, GSPT1, Procedure A; assay type: cell-based; design: HiBit-GSPT1 KI HEK293(LgBit) Cells; host or cells: HEK293(LgBit) knock-in cells; details: six hours
# Procedure, shortened: (§1)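 Luminescence from HiBiT lytic detection reports remaining tagged protein after cells sit six hours at 37° C with compound across ten concentrations (10 μM down to 0.005 μM, 0.1% DMSO). A 4-parameter curve fit gives DC50 and Ymin.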
# CK1α = molecular target: T1, CK1α (Homo sapiens, UniProt P48729+Q96SW2); experiment: HiBiT degradation assay, CK1α, Procedure A; assay type: cell-based; details: six hours
# T1 construct: CSNK1A1-HiBit KI HEK293(LgBit) Cells; host or cells: HEK293(LgBit) knock-in cells
# Procedure, shortened: as §1
# Sequence of GSPT1 (P15170 whole entry): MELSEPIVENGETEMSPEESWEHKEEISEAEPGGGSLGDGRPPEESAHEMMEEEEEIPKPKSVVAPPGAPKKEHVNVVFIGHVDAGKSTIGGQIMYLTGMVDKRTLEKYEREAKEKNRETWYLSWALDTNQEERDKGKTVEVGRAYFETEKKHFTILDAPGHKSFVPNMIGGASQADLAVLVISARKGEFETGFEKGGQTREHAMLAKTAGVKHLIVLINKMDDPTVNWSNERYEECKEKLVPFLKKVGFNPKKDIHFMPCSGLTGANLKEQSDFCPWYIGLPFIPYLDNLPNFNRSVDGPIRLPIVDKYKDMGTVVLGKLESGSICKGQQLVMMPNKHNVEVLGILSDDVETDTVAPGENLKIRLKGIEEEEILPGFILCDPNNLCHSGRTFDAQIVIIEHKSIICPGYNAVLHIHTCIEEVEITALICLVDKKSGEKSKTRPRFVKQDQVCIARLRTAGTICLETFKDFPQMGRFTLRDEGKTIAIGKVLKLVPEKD
# Sequence of GSPT1 (Q96SW2 whole entry): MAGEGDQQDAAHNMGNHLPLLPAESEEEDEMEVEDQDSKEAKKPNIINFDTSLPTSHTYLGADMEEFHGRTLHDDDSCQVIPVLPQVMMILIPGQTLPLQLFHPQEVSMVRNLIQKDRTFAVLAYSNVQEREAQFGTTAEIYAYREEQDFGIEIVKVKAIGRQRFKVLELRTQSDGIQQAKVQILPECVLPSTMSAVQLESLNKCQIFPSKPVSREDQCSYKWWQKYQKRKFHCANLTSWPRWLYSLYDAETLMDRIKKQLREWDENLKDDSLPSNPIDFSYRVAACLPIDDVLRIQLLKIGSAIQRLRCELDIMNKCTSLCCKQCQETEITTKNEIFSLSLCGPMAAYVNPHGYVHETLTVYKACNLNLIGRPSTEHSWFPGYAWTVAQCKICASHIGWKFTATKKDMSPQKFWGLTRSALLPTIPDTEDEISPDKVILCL
# Sequence of GSPT1 (Q16531 whole entry partner): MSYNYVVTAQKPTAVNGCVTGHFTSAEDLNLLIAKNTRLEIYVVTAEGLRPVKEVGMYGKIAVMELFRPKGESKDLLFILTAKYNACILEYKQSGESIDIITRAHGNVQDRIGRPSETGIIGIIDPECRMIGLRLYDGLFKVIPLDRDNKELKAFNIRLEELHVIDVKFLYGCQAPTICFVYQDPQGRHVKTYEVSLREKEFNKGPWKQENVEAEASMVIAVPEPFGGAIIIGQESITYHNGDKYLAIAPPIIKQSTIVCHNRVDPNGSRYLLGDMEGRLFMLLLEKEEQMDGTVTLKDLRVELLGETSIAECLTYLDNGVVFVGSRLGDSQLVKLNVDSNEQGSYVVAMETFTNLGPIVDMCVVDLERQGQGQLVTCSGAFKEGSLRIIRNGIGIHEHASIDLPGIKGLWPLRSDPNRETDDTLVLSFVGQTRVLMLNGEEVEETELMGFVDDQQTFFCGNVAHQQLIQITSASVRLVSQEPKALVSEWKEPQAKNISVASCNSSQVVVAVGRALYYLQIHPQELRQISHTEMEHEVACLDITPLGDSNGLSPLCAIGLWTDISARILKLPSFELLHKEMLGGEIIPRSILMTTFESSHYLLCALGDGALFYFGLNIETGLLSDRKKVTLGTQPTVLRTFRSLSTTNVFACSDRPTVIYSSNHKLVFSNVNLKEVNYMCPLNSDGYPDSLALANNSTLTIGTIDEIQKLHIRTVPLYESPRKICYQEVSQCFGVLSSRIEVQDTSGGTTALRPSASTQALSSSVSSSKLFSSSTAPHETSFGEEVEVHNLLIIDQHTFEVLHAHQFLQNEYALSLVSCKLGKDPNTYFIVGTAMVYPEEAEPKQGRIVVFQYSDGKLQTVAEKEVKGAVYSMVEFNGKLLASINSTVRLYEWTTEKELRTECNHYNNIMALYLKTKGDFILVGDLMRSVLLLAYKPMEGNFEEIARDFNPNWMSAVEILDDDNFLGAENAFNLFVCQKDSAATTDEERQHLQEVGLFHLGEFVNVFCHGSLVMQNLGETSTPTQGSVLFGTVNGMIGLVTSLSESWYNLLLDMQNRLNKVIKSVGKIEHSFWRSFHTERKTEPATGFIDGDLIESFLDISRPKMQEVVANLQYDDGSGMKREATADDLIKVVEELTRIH
# T1 sequence (P48729 whole entry): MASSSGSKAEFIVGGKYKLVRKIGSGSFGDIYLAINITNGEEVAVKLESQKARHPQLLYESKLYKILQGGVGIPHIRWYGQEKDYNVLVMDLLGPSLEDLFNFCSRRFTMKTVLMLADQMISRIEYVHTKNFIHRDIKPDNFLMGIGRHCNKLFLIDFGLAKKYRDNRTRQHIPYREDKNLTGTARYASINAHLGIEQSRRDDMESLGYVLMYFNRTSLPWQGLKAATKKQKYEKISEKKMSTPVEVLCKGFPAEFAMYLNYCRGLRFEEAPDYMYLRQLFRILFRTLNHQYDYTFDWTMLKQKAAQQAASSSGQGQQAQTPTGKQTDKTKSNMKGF
# T1 sequence (Q96SW2 whole entry): as the sequence (Q96SW2 whole entry) above
# T1 sequence (Q16531 whole entry partner): as the sequence (Q16531 whole entry partner) above
Structure (SMILES),DC50 (GSPT1) [nM],GSPT1 Ymin (GSPT1),CK1α Ymin (CK1α),DC50 (CK1α) [nM]
"Cn1nc(-c2ccc3c(c2)CN(C2CCC(=O)NC2=O)C3=O)nc1N1CCC(C)(C)CC1 (stereo not drawn) [Example 612, 3-(5-(5-(4,4-dimethylpiperidin-1-yl)-1-methyl-1H-1,2,4-triazol-3-yl)-1-oxoisoindolin-2-yl)piperidine-2,6-dione]",≥ 25,F (F = >75-100% remaining),D (D = >10- 25% remaining),< 25
"Cn1nc(-c2ccc3c(c2)CN(C2CCC(=O)NC2=O)C3=O)nc1N1CCC(F)(F)CC1 (stereo not drawn) [Example 613, 3-(5-(5-(4,4-difluoropiperidin-1-yl)-1-methyl-1H-1,2,4-triazol-3-yl)-1-oxoisoindolin-2-yl)piperidine-2,6-dione]",≥ 25,F (F = >75-100% remaining),E (E = >25-75% remaining),< 25
"Cn1nc(-c2ccc3c(c2)CN(C2CCC(=O)NC2=O)C3=O)nc1[C@H]1CC[C@H](C)CC1 (stereo partly drawn) [Example 616, 3-(5-(1-methyl-5-((1r,4r)-4-methylcyclohexyl)-1H-1,2,4-triazol-3-yl)-1-oxoisoindolin-2-yl)piperidine-2,6-dione]",≥ 25,F (F = >75-100% remaining),E (E = >25-75% remaining),≥ 25
"Cc1cn(-c2ccc3c(c2)CN(C2CCC(=O)NC2=O)C3=O)nc1-c1ccccc1 (stereo not drawn) [Example 618, 3-(5-(4-methyl-3-phenyl-1H-pyrazol-1-yl)-1-oxoisoindolin-2-yl)piperidine-2,6-dione]",≥ 25,F (F = >75-100% remaining),D (D = >10- 25% remaining),< 25
"O=C1CCC(N2Cc3cc(-c4cn(C5CC5)c(-c5ccccc5)n4)ccc3C2=O)C(=O)N1 (stereo not drawn) [Example 704, 3-(5-(1-cyclopropyl-2-phenyl-1H-imidazol-4-yl)-1-oxoisoindolin-2-yl)piperidine-2,6-dione]",≥ 25,F (F = >75-100% remaining),C (C = 0-10% remaining),< 25

# Second part, the molecule after the results:
DC50 (GSPT1) [nM],GSPT1 Ymin (GSPT1),CK1α Ymin (CK1α),DC50 (CK1α) [nM],Structure (SMILES)
≥ 25,F (F = >75-100% remaining),E (E = >25-75% remaining),< 25,"Cn1nc(-c2ccc3c(c2)CN(C2CCC(=O)NC2=O)C3=O)nc1N1Cc2ccccc2C1 (stereo not drawn) [Example 609, 3-(5-(5-(isoindolin-2-yl)-1-methyl-1H-1,2,4-triazol-3-yl)-1-oxoisoindolin-2-yl)piperidine-2,6-dione]"
≥ 25,E (E = >25-75% remaining),D (D = >10- 25% remaining),< 25,"CC(C)n1nc(-c2ccccc2)nc1-c1ccc2c(c1)CN(C1CCC(=O)NC1=O)C2=O (stereo not drawn) [Example 610, 3-(5-(1-isopropyl-3-phenyl-1H-1,2,4-triazol-5-yl)-1-oxoisoindolin-2-yl)piperidine-2,6-dione]"
≥ 25,F (F = >75-100% remaining),C (C = 0-10% remaining),< 25,"Cn1nc(-c2ccc3c(c2)CN(C2CCC(=O)NC2=O)C3=O)nc1N1CCCCCC1 (stereo not drawn) [Example 611, 3-(5-(5-(azepan-1-yl)-1-methyl-1H-1,2,4-triazol-3-yl)-1-oxoisoindolin-2-yl)piperidine-2,6-dione]"
< 25,F (F = >75-100% remaining),E (E = >25-75% remaining),< 25,"Cn1nc(-c2ccc3c(c2)CN(C2CCC(=O)NC2=O)C3=O)nc1[C@H]1CC[C@@H](C)CC1 (stereo partly drawn) [Example 617, 3-(5-(1-methyl-5-((1s,4s)-4-methylcyclohexyl)-1H-1,2,4-triazol-3-yl)-1-oxoisoindolin-2-yl)piperidine-2,6-dione]"
